Results on one compound are retold here after US12344614B2, “Benzodiazepine derivatives as GABA a GAMMA1 PAM” (Hoffmann-La Roche Inc., priority 2021, dated 2025).

Test [1] has as its target human GABAA α2β2γ1 receptor (Homo sapiens (Human), UniProt P47869+Q8N1C3). In words: Radioligand binding assay, competition for [3H]RO7239181, membranes from HEK293F cells. How it is done:
The affinity of compounds at GABAA γ1 subunit-containing receptors was measured by competition for [^3H]RO7239181 (67.3 Ci/mmol; Roche) binding to membranes from HEK293F cells (ThermoFisher R79007) expressing human (transiently transfected) receptors of composition α5β2γ1, α2β2γ1, α1β2γ1.
(§1) Harvested pellets from HEK293F cells expressing the different GABAA receptor subtypes were resuspended in Mannitol Buffer pH 7.2-7.4 (Mannitol 0.29M, Triethylamine 10 mM, Acetic acid 10 mM, EDTA 1 mM plus protease inhibitors (20 tablets Complete, Roche Diagnostics Cat. No. 05 056 489 001 per liter)), washed two times and then resuspended at 1:10 to 1:15 dilution in the same buffer. Cell disruption was performed by stirring the suspension in a Parr vessel #4637 at 435 psi for 15 minutes, and then the suspensions were centrifuged at 1000×g for 15 minutes at 4° C. (Beckman Avanti J-HC; rotor JS-4.2). The supernatant (S1) was transferred in a 21 Schott flask and the pellet (P1) was resuspended with Mannitol Buffer up to 175 ml. The resuspended pellet was transferred into a 250 ml Corning centrifugal beaker and centrifuged at 1500×g for 10 minutes at 4° C. (Beckman Avanti J-HC; rotor JS-4.2). The supernatant (S1) was then transferred in the 21 Schott flask and the pellet was discarded. The supernatants (S1) were centrifuged in 500 ml Beckman polypropylene centrifugal beaker at 15′000×g for 30 minutes at 4° C. (Beckman Avanti J-20 XP; rotor JLA-10.500). The pellet (P2) was resuspended with Mannitol Buffer 1:1 and frozen at −80° C. The supernatant (S2) was centrifuged in 100 ml Beckman polypropylene centrifugal tubes at 48000×g for 50 minutes at 4° C. (Beckman Avanti J-20 XP; rotor JA-18). The supernatant (S3) was discarded and the pellet (P3) was resuspended with 1:1 Mannitol Buffer. The P2 and P3 protein concentration was determined with the BIORAD Standard assay method with bovine serum albumin as standard and measured on the NANO-Drop 1000. The membrane suspension was aliquots (500 μl per tube) and stored at −80° C. until required.
(§2) Membrane homogenates were resuspended and polytronised (Polytron PT1200E Kinematica AG) in Potassium Phosphate 10 mM, KCl 100 mM binding buffer at pH 7.4 to a final assay concentration determined with a previous experiment.
(§3) Assays were incubated to equilibrium for 1 hour at 4° C. and then, membranes were filtered onto unifilter (96-well white microplate with bonded GF/C filters preincubated 20-50 minutes in 0.3% Polyethylenimine) with a Filtermate 196 harvester (Packard BioScience) and washed 4 times with cold Potassium Phosphate 10 mM pH 7.4, KCl 100 mM binding buffer. After anhydrousing, filter-retained radioactivity was detected by liquid scintillation counting. Ki values were calculated using Excel-Fit (Microsoft) and are the means of two determinations.

For a further test, the target named is h-GABA-A α2β2γ1 receptor (Homo sapiens (Human), UniProt P47869+Q8N1C3). The test can be described thus: Two-electrode voltage clamp electrophysiology in Xenopus oocytes expressing GABAA receptors. It counts as cell-based. As to conditions: % modulation of GABA EC20 = 100*(Fold increase−1), compound at 30-fold Ki α2β2γ1. How it is done: Xenopus laevis oocytes at maturation stages V-VI were used for the expression of cloned mRNA encoding GABAA receptor subunits. Oocytes ready for RNA micro-injection were bought from Ecocyte, Castrop-Rauxel, Germany and stored in modified Barth's medium (composition in mM: NaCl 88, KCl 1, NaHCO3 2.4, HEPES 10, MgSO4 0.82, CaNO3 0.33, CaCl2 0.33, pH=7.5) at 20° C. until the experiment.
Oocytes were plated in 96-well plates for microinjection using the Roboinject automated instrument (MultiChannelSystems, Reutlingen, Germany). Approximately 50 nL of an aqueous solution containing the RNA transcripts for the subunits of the desired GABAA receptor subtype was injected into each oocyte. […] Oocytes were kept in modified Barth's medium (composition in mM: NaCl 88, KCl 1, NaHCO3 4, HEPES 10, MgSO4 0.82, CaNO3 0.33, CaCl, 0.33, pH=7.5) at 20° C. until the experiment.
Electrophysiological experiments were performed using the Roboocyte instrument (MultiChannelSystems, Reutlingen, Germany) on days 3 to 5 after the micro-injection of mRNA. During the experiment the oocytes were constantly superfused by a solution containing (in mM) NaCl 90, KCl 1, HEPES 5, MgCl2 1, CaCl2 1 (pH 7.4). Oocytes were impaled by two glass microelectrodes (resistance: 0.5-0.8 MΩ) which were filled with a solution containing KCl 1M+K-acetate 1.5 M and voltage-clamped to −80 mV. The recordings were performed at room temperature using the Roboocyte two-electrode voltage clamp system (Multichannelsystem). After an initial equilibration period of 1.5 min GABA was added for 1.5 min at a concentration evoking approximately 20% of a maximal current response (EC2O). After another rest interval of 2.5 min GABA was again added evoking a response of similar amplitude and shape. […] Current traces were recorded at a digitization rate of 10 Hz during and shortly before and after the GABA application.
Each compound and concentration was tested on at least 3 oocytes. Different oocytes were used for different compound concentrations.
For the analysis, the digitized current traces of the first and second GABA response were superimposed and, if necessary, rescaled to equal maximal amplitudes. The ratio between the two responses during the time interval of test compound application was calculated point by point. The extremum of the resulting “ratio trace” was taken as the efficacy (“Fold increase”) of the compound expressed as “% modulation of GABA EC20” (100*(Fold increase−1)).

The target in test [2] is human GABAA α5β2γ1 receptor (Homo sapiens (Human), UniProt P31644+Q8N1C3). In words: Radioligand binding assay, competition for [3H]RO7239181, membranes from HEK293F cells. As to conditions: read-out: Ki h-GABAA α5β2γ1; [3H]RO7239181 […], HEK293F membranes, 1 hour at 4° C., mean of two determinations. As for the experimental part:
The affinity of compounds at GABAA γ1 subunit-containing receptors was measured by competition for [^3H]RO7239181 (67.3 Ci/mmol; Roche) binding to membranes from HEK293F cells (ThermoFisher R79007) expressing human (transiently transfected) receptors of composition α5β2γ1, α2β2γ1, α1β2γ1. For better protein expression of the α2 subunit-containing receptors, the 28 amino acid long signal peptide (Met1 to Ala28) of the human GABAA α2 subunit was substituted by the 31 amino acid long signal peptide (Met1 to Ser31) of human GABAA α5 subunit.
as §1, §2
as §3, with “Radioligand binding assays were carried out in a volume of 200 μL (96-well plates) which contained 100 μL of cell membranes, [^3H]RO7239181 at a concentration of 1.5 nM (α5β2γ1) or 20-30 nM (α1β2γ1, α2β2γ1) and the test compound in the range of [0.3-10000]×10^−9 M. Nonspecific binding was defined by 10×10^−6 (α5β2γ1) and 30×10^−6 M RO7239181 and typically represented less than 5% (α5β2γ1) and less than 20% (α1β2γ1, α2β2γ1) of the total binding. Assays” for “Assays”
Representative test results, obtained by the above described assay measuring binding affinity to HEK293 cells expressing human (h) receptors, are shown in the Table 1.

Test [3] concerns the target human GABAA α1β3γ2 receptor (Homo sapiens (Human), UniProt P14867+P18507). The test can be described thus: Radioligand binding assay, competition for [3H]Flumazenil, HEK293F cells. As to conditions: read-out: Ki h-GABAA α1β3γ2; [3H]Flumazenil 1 nM, HEK293F membranes, 1 hour at 4° C., mean of two determinations. As for the experimental part:
The affinity of compounds at GABAA γ2 subunit-containing receptors was measured by competition for [^3H]Flumazenil (81.1 Ci/mmol; Roche) binding to HEK293F cells expressing human (transiently transfected) receptors of composition α1β3γ2.
Harvested pellets from HEK293F cells expressing the different GABAA γ2 receptor subtypes were resuspended in Mannitol Buffer pH 7.2-7.4 and processed as described above for the cells expressing the GABAA γ1 subunit-containing receptors.
Assays were incubated to equilibrium for 1 hour at 4° C. and harvested onto GF/C uni-filters (Packard) by filtration using a Packard harvester and washing with ice-cold wash buffer (50 mM Tris; pH 7.5). After anhydrousing, filter-retained radioactivity was detected by liquid scintillation counting. Ki values were calculated using Excel-Fit (Microsoft) and are the means of two determinations.

Take `C[C@@H]1N=C(c2nc(O)ccc2F)c2c(ccc(C(F)(F)F)c2Cl)-n2nc(C(=O)N3CC(F)C3)nc21` [Example 21, [(4S)-7-chloro-6-(3-fluoro-6-hydroxy-2-pyridyl)-4-methyl-8-(trifluoromethyl)-4H-[1,2,4]triazolo[1,5-a][1,4]benzodiazepin-2-yl]-(3-fluoroazetidin-1-yl)methanone]: the inhibition constant (Ki) (in general, a dissociation constant, usually derived from enzyme kinetics or from competition with a known ligand) is 11.8 nM in test [1], 5.51 nM in test [2] and > 30000 nM in test [3]. Further, the “Efficacy (GABA) %” value at h-GABA-A α2β2γ1 receptor was 73%.
